Assay results: patent US10385024B2, “Compounds and methods for inhibiting NHE-mediated antiport in the treatment of disorders associated with fluid retention or salt overload and gastrointestinal tract disorders” (Ardelyx, Inc., priority 2012, dated 2019)

Assays:
human NHE-3 = target: T1, human NHE-3 (Homo sapiens, UniProt P48764); assay: Cell-based assay of NHE-3 activity (human NHE3 inhibition assay); conditions: OK cells with human NHE-3 gene, BCECF pH dye, 0-30 μM test compound; for IC50: read-out: Human NHE3 pIC50 (converted)
T1 construct: expressed in transfected cells; host or cells: Opossum kidney (OK) cells (ATCC), transfected by electroporation
T1 sequence (P48764 26-834): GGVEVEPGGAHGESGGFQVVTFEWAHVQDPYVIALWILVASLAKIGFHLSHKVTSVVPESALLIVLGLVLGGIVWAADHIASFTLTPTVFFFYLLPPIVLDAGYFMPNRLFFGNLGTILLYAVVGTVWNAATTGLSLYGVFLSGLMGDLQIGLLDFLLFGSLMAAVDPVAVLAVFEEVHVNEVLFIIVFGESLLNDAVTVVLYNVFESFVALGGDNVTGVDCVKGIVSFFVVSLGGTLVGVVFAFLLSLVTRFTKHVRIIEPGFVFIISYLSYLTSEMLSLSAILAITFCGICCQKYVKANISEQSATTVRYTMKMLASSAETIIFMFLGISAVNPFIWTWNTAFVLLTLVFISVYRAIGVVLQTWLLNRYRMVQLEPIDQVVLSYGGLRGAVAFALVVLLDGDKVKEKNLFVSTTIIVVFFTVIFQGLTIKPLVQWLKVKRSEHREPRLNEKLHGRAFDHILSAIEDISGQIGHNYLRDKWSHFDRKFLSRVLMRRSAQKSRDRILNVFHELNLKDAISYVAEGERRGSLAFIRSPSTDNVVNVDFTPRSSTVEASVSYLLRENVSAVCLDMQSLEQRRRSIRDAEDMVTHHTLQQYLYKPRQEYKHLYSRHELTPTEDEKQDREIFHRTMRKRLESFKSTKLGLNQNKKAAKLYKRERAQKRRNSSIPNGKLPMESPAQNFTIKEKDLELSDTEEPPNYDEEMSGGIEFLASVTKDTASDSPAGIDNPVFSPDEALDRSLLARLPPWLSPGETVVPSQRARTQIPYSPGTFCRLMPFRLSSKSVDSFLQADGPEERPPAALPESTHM
Method in brief: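 Opossum kidney cells electroporated with rat or human NHE-3, loaded with 5 μM BCECF-AM in NH4Cl-HEPES pH 7.4 for 30 min at RT, then acidified 10 min in Na+-free choline HEPES. Na+-dependent pH recovery rates from BCECF fluorescence, averaged over ≥2 replicates, gave pIC50.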

[1] = Pharmacokinetic evaluation in bile; assay type: in vivo, Sprague-Dawley rats; conditions: bile duct cannulated rats, oral gavage, nominal dose 30 mg/kg, bile collected over 24 h, mean of n=3
Description: Bile duct cannulated (BDC) Sprague-Dawley rats were dosed with test compounds by oral gavage and a single aliquot of bile was collected via cannula over the 24 h following dosing. Bile samples were treated with acetonitrile and precipitated proteins were removed by centrifugation. Some compounds required liquid-liquid extraction using MTBE. After centrifugation, samples were diluted as appropriate in mobile phase and analyzed by LC-MS/MS. The concentrations of compounds in bile were determined by interpolation from a standard calibration curve prepared in rat bile from untreated BDC rats. Accurate recovery of quality control samples was confirmed to accept each analytical run. Concentration in bile is reported in nM and represents the mean result from n=3 rats.

| SMILES | IC50 (human NHE-3) | Concentration in Bile [1] | Human NHE3 pIC50 (human NHE-3) |
| --- | --- | --- | --- |
| CN1Cc2c(Cl)cc(Cl)cc2[C@H](c2cccc(S(=O)(=O)NCCOCCOCCNC(=O)CCC(CCC(=O)NCCOCCOCCNS(=O)(=O)c3cccc([C@@H]4CN(C)Cc5c(Cl)cc(Cl)cc54)c3)(CCC(=O)NCCOCCOCCNS(=O)(=O)c3cccc([C@@H]4CN(C)Cc5c(Cl)cc(Cl)cc54)c3)NC(=O)NCCS(=O)(=O)O)c2)C1 [Example 3] | < 100 nM | 10 nM |  |
| CN1Cc2c(Cl)cc(Cl)cc2[C@H](c2cccc(S(=O)(=O)NCCOCCOCCNC(=O)CCC(CCC(=O)NCCOCCOCCNS(=O)(=O)c3cccc([C@@H]4CN(C)Cc5c(Cl)cc(Cl)cc54)c3)(CCC(=O)NCCOCCOCCNS(=O)(=O)c3cccc([C@@H]4CN(C)Cc5c(Cl)cc(Cl)cc54)c3)NC(=O)COCC(=O)O)c2)C1 [Example 6, 1-(3-((S)-6,8-dichloro-2-methyl-1,2,3,4-tetrahydroisoquinolin-4-yl)phenylsulfonamido)-13,13-bis(3-(2-(2-(2-(3-((S)-6,8-dichloro-2-methyl-1,2,3,4-tetrahydroisoquinolin-4-yl)phenylsulfonamido)ethoxy)ethoxy)ethylamino)-3-oxopropyl)-10,15-dioxo-3,6,17-trioxa-9,14-diazanonadecan-19-oic Acid] | < 100 nM | 21 nM |  |
| CN1Cc2c(Cl)cc(Cl)cc2[C@H](c2cccc(S(=O)(=O)NCCOCCOCCNC(=O)CCC(CCC(=O)NCCOCCOCCNS(=O)(=O)c3cccc([C@@H]4CN(C)Cc5c(Cl)cc(Cl)cc54)c3)(CCC(=O)NCCOCCOCCNS(=O)(=O)c3cccc([C@@H]4CN(C)Cc5c(Cl)cc(Cl)cc54)c3)NC(=O)NC(CO)(CO)CO)c2)C1 [Example 11, N^1,N^7-bis(2-(2-(2-(3-((S)-6,8-dichloro-2-methyl-1,2,3,4-tetrahydroisoquinolin-4-yl)phenylsulfonamido)ethoxy)ethoxy)ethyl)-4-(3-(2-(2-(2-(3-((S)-6,8-dichloro-2-methyl-1,2,3,4-tetrahydroisoquinolin-4-yl)phenylsulfonamido)ethoxy)ethoxy)ethylamino)-3-oxopropyl)-4-(3-(1,3-dihydroxy-2-(hydroxymethyl)propan-2-yl)ureido)heptanediamide] | 100 to 10000 nM |  |  |
| CN(C)CC(=O)NC(CCC(=O)NCCOCCOCCNS(=O)(=O)c1cccc([C@@H]2CN(C)Cc3c(Cl)cc(Cl)cc32)c1)(CCC(=O)NCCOCCOCCNS(=O)(=O)c1cccc([C@@H]2CN(C)Cc3c(Cl)cc(Cl)cc32)c1)CCC(=O)NCCOCCOCCNS(=O)(=O)c1cccc([C@@H]2CN(C)Cc3c(Cl)cc(Cl)cc32)c1 [Example 14, N1,N7-bis(2-(2-(2-(3-((S)-6,8-dichloro-2-methyl-1,2,3,4-tetrahydroisoquinolin-4-yl)phenylsulfonamido)ethoxy)ethoxy)ethyl)-4-(3-(2-(2-(2-(3-((S)-6,8-dichloro-2-methyl-1,2,3,4-tetrahydroisoquinolin-4-yl)phenylsulfonamido)ethoxy)ethoxy)ethylamino)-3-oxopropyl)-4-(2-(dimethylamino)acetamido)heptanediamide] | < 100 nM | 28 nM |  |
| CN1Cc2c(Cl)cc(Cl)cc2[C@H](c2cccc(S(=O)(=O)NCCOCCOCCNC(=O)CCC(CCC(=O)NCCOCCOCCNS(=O)(=O)c3cccc([C@@H]4CN(C)Cc5c(Cl)cc(Cl)cc54)c3)(CCC(=O)NCCOCCOCCNS(=O)(=O)c3cccc([C@@H]4CN(C)Cc5c(Cl)cc(Cl)cc54)c3)NC(=O)NCCN3CCOCC3)c2)C1 [Example 17, N^1,N^7-bis(2-(2-(2-(3-((S)-6,8-dichloro-2-methyl-1,2,3,4-tetrahydroisoquinolin-4-yl)phenylsulfonamido)ethoxy)ethoxy)ethyl)-4-(3-(2-(2-(2-(3-((S)-6,8-dichloro-2-methyl-1,2,3,4-tetrahydroisoquinolin-4-yl)phenylsulfonamido)ethoxy)ethoxy)ethylamino)-3-oxopropyl)-4-(3-(2-morpholinoethyl)ureido)heptanediamide] | < 100 nM |  |  |
| CN1Cc2c(Cl)cc(Cl)cc2[C@H](c2cccc(S(=O)(=O)NCCOCCOCCNC(=O)CCC(CCC(=O)NCCOCCOCCNS(=O)(=O)c3cccc([C@@H]4CN(C)Cc5c(Cl)cc(Cl)cc54)c3)(CCC(=O)NCCOCCOCCNS(=O)(=O)c3cccc([C@@H]4CN(C)Cc5c(Cl)cc(Cl)cc54)c3)NC(=O)CCCC(=O)O)c2)C1 [Example 36] |  | 17 nM | C (C NHE3 pIC50 > 7) |
| CN1Cc2c(Cl)cc(Cl)cc2[C@H](c2cccc(S(=O)(=O)NCCOCCOCCNC(=O)CCC(CCC(=O)NCCOCCOCCNS(=O)(=O)c3cccc([C@@H]4CN(C)Cc5c(Cl)cc(Cl)cc54)c3)(CCC(=O)NCCOCCOCCNS(=O)(=O)c3cccc([C@@H]4CN(C)Cc5c(Cl)cc(Cl)cc54)c3)NC(=O)CCC(=O)O)c2)C1 [Example 40] |  | 23 nM | C (C NHE3 pIC50 > 7) |
| CN1Cc2c(Cl)cc(Cl)cc2[C@H](c2cccc(S(=O)(=O)NCCOCCOCCNC(=O)NCCCN(CCCNC(=O)NCCOCCOCCNS(=O)(=O)c3cccc([C@@H]4CN(C)Cc5c(Cl)cc(Cl)cc54)c3)CCCNC(=O)NCCOCCOCCNS(=O)(=O)c3cccc([C@@H]4CN(C)Cc5c(Cl)cc(Cl)cc54)c3)c2)C1 [Example 43, (S)—N,N′-(15-(1-(3-((S)-6,8-dichloro-2-methyl-1,2,3,4-tetrahydroisoquinolin-4-yl)phenylsulfonamido)-10-oxo-3,6-dioxa-9,11-diazatetradecan-14-yl)-10,20-dioxo-3,6,24,27-tetraoxa-9,11,15,19,21-pentaazanonacosane-1,29-diyl)bis(3-((S)-6,8-dichloro-2-methyl-1,2,3,4-tetrahydroisoquinolin-4-yl)benzenesulfonamide)] | < 100 nM | 6 nM |  |
| CN1Cc2c(Cl)cc(Cl)cc2[C@H](c2cccc(S(=O)(=O)NCCOCCOCCN(C)C(=O)NCCCN(CCCNC(=O)N(C)CCOCCOCCNS(=O)(=O)c3cccc([C@@H]4CN(C)Cc5c(Cl)cc(Cl)cc54)c3)CCCNC(=O)N(C)CCOCCOCCNS(=O)(=O)c3cccc([C@@H]4CN(C)Cc5c(Cl)cc(Cl)cc54)c3)c2)C1 [Example 55] |  |  | C (C NHE3 pIC50 > 7) |
| CN1Cc2c(Cl)cc(Cl)cc2[C@H](c2cccc(S(=O)(=O)NCCOCCOCCNC(=O)NCCCC(N)(CCCNC(=O)NCCOCCOCCNS(=O)(=O)c3cccc([C@@H]4CN(C)Cc5c(Cl)cc(Cl)cc54)c3)CCCNC(=O)NCCOCCOCCNS(=O)(=O)c3cccc([C@@H]4CN(C)Cc5c(Cl)cc(Cl)cc54)c3)c2)C1 [Example 62] |  | 7 nM | C (C NHE3 pIC50 > 7) |
| CN1Cc2c(Cl)cc(Cl)cc2[C@H](c2cccc(S(=O)(=O)NCCOCCOCCNC(=O)NCCCC(CCCNC(=O)NCCOCCOCCNS(=O)(=O)c3cccc([C@@H]4CN(C)Cc5c(Cl)cc(Cl)cc54)c3)(CCCNC(=O)NCCOCCOCCNS(=O)(=O)c3cccc([C@@H]4CN(C)Cc5c(Cl)cc(Cl)cc54)c3)NC(=O)NC[C@H](O)[C@@H](O)[C@H](O)[C@H](O)CO)c2)C1 [Example 65] |  |  | C (C NHE3 pIC50 > 7) |
